Assays:
[1] = tested on: 16 month old chronic interstitial, encapsulated, alpha-hemolytic, streptococcal channelling ulceration located on their right ankle; assay: Example 1: old chronic ankle wound, treatment of a human patient; format: in vivo; conditions: for outcome of conventional intravenous treatments / outcome of conventional per orum treatments: two week cycle each, not given in the same period
Procedure: The concepts of the invention will now be illustrated by the following Examples, which are intended to be purely exemplary and not limiting. The chemical debriding complex applied to the wound treated in example 1 was an aerosolized liquid composition comprising:
(§1) The formulation of the present invention used in the following examples was prepared in the form of a gel as follows:
(§2) (4) 1 ml of mixture (a), 1 ml of mixture (b) and 1 ml of mixture (c) were combined using a three step homogenization process to form the gel formulation of the present invention used in the following examples, namely
(§3) The dose of formulation used in treating the wounds in the following examples was based on the wound volume. The wound volume was measured in cubic centimeters using well known methods.
A human patient in normal health, suffered from a 16 month old chronic interstitial, encapsulated, alpha-hemolytic, streptococcal channelling ulceration located on their right ankle and tunnelled to the periosteum of the bone in their right ankle. […] Conventional intravenous treatments, including a two week cycle of penicillin and a two week cycle of amoxicillin, were unsuccessful. Note that the penicillin and the amoxicillin were not administered during the same two week period. Conventional per orum treatments, including a two week cycle of Keflex® and a two week cycle of Cipro®, were unsuccessful. Note that the Keflex and Cipro were not administered during the same two week period, nor were they administered during the same two week period as either of the penicillin or the amoxicillin.
(§4) The wound was subsequently treated using the gel formulation prepared as described above. Specifically, the given formulation was administered to the patient's wound as part of the following treatment procedure. Particularly, (i) the wound was prepared for administration of the given formulation by liberal application of a chemical debriding complex described above; (ii) after allowing the chemical debriding complex to bubble off, about three (3) minutes, a medicated pad comprising a sterile pad containing about three (3) ml of the gel formulation for each cubic centimeter of wound volume was placed over the wound and secured to the patient; (iii) the medicated pad was removed about twenty-four (24) hours later; (iv) steps (i) through (iii) were repeated. After seven (7) days of treatment, the wound was completely closed.

[2] = tested on: 18 month old chronic bed sore on the middle of their back; assay: Example 2: old chronic back wound (bed sore), treatment of a human patient; format: in vivo; conditions: dressings in conjunction with two serial courses of antibiotics (per orum Cipro 500 mg B.I.D., then 500 mg intravenous Keflex every eight hours)
Procedure: The chemical debriding complex applied to each of the wounds treated in examples 2 through 4 was an aerosolized liquid composition comprising:
as §1, §2, §3, §4
A human patient in very poor health suffering from CHF, diabetes, peripheral vascular disease, 10% body surface non-candidyal yeast infection, nutritional deficit, and “steroid” skin secondary to prednisone administration for auto-immune arthritis and from an 18 month old chronic bed sore on the middle of their back. Conventional treatments, including granulex, zinc oxide, duoderm and sorbasan dressings in conjunction with two serial courses of oral antibiotics, per orum Cipro 500 mg B.I.D. followed by 500 mg intravenous Keflex every eight hours, were unsuccessful at stimulating the healing of the wound. […]

[3] = tested on: six (6) month old chronic pressure-friction wound on both haunches; assay: Example 3: canine pressure wound; format: in vivo, Borzoi; conditions: duoderm post shaving; before treatment with the formulation

Compound	outcome of conventional intravenous treatments [1]	outcome of conventional treatments at stimulating the healing of the wound [2]	outcome of conventional per orum treatments [1]	outcome of conventional topical treatments ([1]; topical, before treatment with the gel formulation)	outcome of conventional treatments [3]
penicillin	unsuccessful	–	–	–	–
CC1=C(C(=O)O)N2C(=O)[C@@H](NC(=O)[C@H](N)c3ccccc3)[C@H]2SC1 [Keflex]	–	unsuccessful	unsuccessful	–	–
[O]=[Zn] [zinc oxide]	–	unsuccessful	–	repeatedly unsuccessful	repeatedly unsuccessful
O=C(O)c1cn(C2CC2)c2cc(N3CCNCC3)c(F)cc2c1=O [Cipro]	–	unsuccessful	unsuccessful	–	–
CC1(C)S[C@@H]2[C@H](NC(=O)[C@H](N)c3ccc(O)cc3)C(=O)N2[C@H]1C(=O)O [amoxicillin]	unsuccessful	–	–	–	–

Source: patent US20010006646A1, “METHOD AND SYSTEM FOR TREATMENT OF WOUNDS” (priority 1996, published 2001)
